Results: ChEMBL document CHEMBL1136999, “Discovery of novel phosphonate derivatives as hepatitis C virus NS3 protease inhibitors” (Bioorg Med Chem Lett, 2009)

Legend:
[1] = Inhibition of HCV NS3 protease; design: species or system Hepacivirus hominis
Hepatitis C virus = test: Antiviral activity against HCV in human HuH7 cells by replicon assay; format: functional, organism-based, Hepacivirus hominis; conditions: Huh-7
[2] = Apparent systemic clearance in dog at 1.1 mg/kg, iv relative to liver blood flow; format: ADME, organism-based, Canis lupus familiaris; design: dose 1.1 mg/kg, route intravenous; conditions: in vivo
[3] = Cytotoxicity against human HuH7 cells; format: cell-based, Huh-7
[4] = Apparent permeability from apical to basolateral side in human Caco-2 cells; format: ADME, cell-based
[5] = Oral bioavailability in dog at 2.7 mg/kg; format: ADME, organism-based, Canis lupus familiaris; conditions: in vivo

| IC50 [1] | EC50 (Hepatitis C virus) | clearance [2] | Papp A→B [4] | bioavailability [5] | Structure (SMILES) | CC50 [3] |
| --- | --- | --- | --- | --- | --- | --- |
| 280 nM | 39 nM | 28.3 mL/min/kg |  |  | C=CC1C[C@]1(NC(=O)[C@@H]1C[C@@H](Oc2cc(-c3csc(NC(C)C)n3)nc3cc(OC)ccc23)CN1C(=O)[C@@H](NC(=O)OC1CCCC1)C(C)(C)C)P(=O)(OCOC(=O)OCC)OCOC(=O)OCC (stereo partly specified) |  |
| 85 nM | 41 nM |  |  |  | C=CC1C[C@]1(NC(=O)[C@@H]1C[C@@H](Oc2cc(-c3csc(NC(C)C)n3)nc3cc(OC)ccc23)CN1C(=O)[C@@H](NC(=O)OC1CCCC1)C(C)(C)C)P(=O)(OCOC(=O)OCC1CC1)OCOC(=O)OCC1CC1 (stereo partly specified) |  |

More lines, now with the values behind:

| Structure (SMILES) | IC50 [1] | EC50 (Hepatitis C virus) | clearance [2] | Papp A→B [4] | bioavailability [5] | CC50 [3] |
| --- | --- | --- | --- | --- | --- | --- |
| C=CC1C[C@]1(NC(=O)[C@@H]1C[C@@H](Oc2cc(-c3csc(NC(C)C)n3)nc3cc(OC)ccc23)CN1C(=O)[C@@H](NC(=O)OC1CCCC1)C(C)(C)C)C(=O)O (stereo partly specified) | 3 nM | 6 nM |  |  |  | > 50000 nM |
| C=CC1C[C@]1(NC(=O)[C@@H]1C[C@@H](Oc2cc(-c3csc(NC(C)C)n3)nc3cc(OC)ccc23)CN1C(=O)[C@@H](NC(=O)OC1CCCC1)C(C)(C)C)P(=O)(O)O (stereo partly specified) | 0.9 nM | 92 nM |  | 0.2 ×10⁻⁶ cm/s | 1% | > 50000 nM |
| C=CC1C[C@]1(NC(=O)[C@@H]1C[C@@H](Oc2cc(-c3csc(NC(C)C)n3)nc3cc(OC)ccc23)CN1C(=O)[C@@H](NC(=O)OC1CCCC1)C(C)(C)C)P(=O)(O)OCC (stereo partly specified) | 7 nM | 360 nM |  |  |  | > 50000 nM |
